In brackets after ≈: the same amount, converted by molar mass.
Columns and labels:
Type in all cases: functional
Settings in all cases: 336 h
[1] = tested on: Mycobacterium tuberculosis; test: Antimycobacterial activity against isoniazid-,rifampin-,ethambutol-,kanamycin-,ofloxacin-resistant Mycobacterium tuberculosis after 14 days
[2] = tested on: Mycobacterium tuberculosis; test: Antimycobacterial activity against isoniazid-,rifampin-,ethambutol-,streptomycin-,kanamycin-,ofloxacin-resistant Mycobacterium tuberculosis after 14 days
[3] = tested on: Mycobacterium tuberculosis; test: Antimycobacterial activity against isoniazid-,rifampin-,ethambutol-,rifabutin-resistant Mycobacterium tuberculosis after 14 days

Structure (SMILES)	MIC90 [1] [µM]	MIC90 [2] [µM]	MIC90 [3] [µM]
O=C(OCc1ccccc1)c1coc(-c2ccccc2)n1	8.9 (≈ 2.49 µg/mL)	4.4 (≈ 1.23 µg/mL)	–
O=C(OCc1ccccc1)c1csc(-c2ccccc2)n1	16.9 (≈ 4.99 µg/mL)	16.9 (≈ 4.99 µg/mL)	33.9 (≈ 10 µg/mL)
Cc1ccn2c(C(=O)OCc3ccccc3)c(C)nc2c1	< 0.04	< 0.04	0.57 (≈ 0.16 µg/mL)
O=[N+]([O-])c1cn2c(n1)OC[C@@H](OCc1ccc(OC(F)(F)F)cc1)C2 [PRETOMANID]	0.22 (≈ 0.079 µg/mL)	0.86 (≈ 0.309 µg/mL)	0.45 (≈ 0.162 µg/mL)
